Key:
Assay in all cases: cells
Details in all cases: Homo sapiens
[1] = system: CAL-54; assay type: functional, cell-based;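 further: growth inhibition of CAL-54 cells, read out by a viability measurement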
Description: SANGER: Inhibition of human CAL-54 cell growth in a cell viability assay.

[2] = system: CAMA-1; assay type: functional, cell-based;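 further: growth inhibition of CAMA-1 cells, read out with a cell viability assay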
Description: SANGER: Inhibition of human CAMA-1 cell growth in a cell viability assay.

[3] = system: BPH-1; assay type: functional, cell-based;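 further: cell viability assay measuring growth inhibition of human BPH-1 cells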
Description: SANGER: Inhibition of human BPH-1 cell growth in a cell viability assay.

[4] = system: SAOS-2; assay type: functional, cell-based;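 further: growth inhibition of human Saos-2 cells determined by a cell viability assay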
Description: SANGER: Inhibition of human Saos-2 cell growth in a cell viability assay.

[5] = system: HCC70; assay type: functional, cell-based;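 further: cell viability assay measuring how strongly the compound suppresses proliferation of HCC70 cells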
Description: SANGER: Inhibition of human HCC70 cell growth in a cell viability assay.

[6] = system: A2780; assay type: functional, cell-based;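 further: growth inhibition of A2780 cells, read out with a cell viability assay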
Description: SANGER: Inhibition of human A2780 cell growth in a cell viability assay.

[7] = system: SW948; assay type: functional, cell-based;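 further: growth inhibition of SW948 cells, read out with a cell viability assay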
Description: SANGER: Inhibition of human SW948 cell growth in a cell viability assay.

[8] = system: MIA PaCa-2; assay type: functional, cell-based;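 further: growth inhibition of MIA PaCa-2 cells, read out with a cell viability assay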
Description: SANGER: Inhibition of human MIA-PaCa-2 cell growth in a cell viability assay.

[9] = system: CAL-33; assay type: functional, cell-based;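 further: growth inhibition of CAL-33 cells, read out with a cell viability assay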
Description: SANGER: Inhibition of human CAL-33 cell growth in a cell viability assay.

[10] = system: NCI-H1573; assay type: functional, cell-based;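 further: growth inhibition of NCI-H1573 cells, read out with a cell viability assay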
Description: SANGER: Inhibition of human NCI-H1573 cell growth in a cell viability assay.

[11] = system: COLO-741; assay type: functional, cell-based
Description: SANGER: Inhibition of human COLO-741 cell growth in a cell viability assay.

[12] = system: NCI-H2087; assay type: functional, cell-based;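 further: growth inhibition determined with a cell viability readout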
Description: SANGER: Inhibition of human NCI-H2087 cell growth in a cell viability assay.

[13] = system: DU-145; assay type: functional, cell-based
Description: SANGER: Inhibition of human DU-145 cell growth in a cell viability assay.

[14] = system: KYSE-510; assay type: functional, cell-based;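 further: cell viability readout used to measure how strongly growth of the cell line is suppressed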
Description: SANGER: Inhibition of human KYSE-510 cell growth in a cell viability assay.

[15] = system: HT1197; assay type: functional, cell-based, HT-1197
Description: SANGER: Inhibition of human HT-1197 cell growth in a cell viability assay.

[16] = system: 769-P; assay type: functional, cell-based
Description: SANGER: Inhibition of human 769-P cell growth in a cell viability assay.

[17] = system: VM-CUB-1; assay type: functional, cell-based;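 further: cell viability assay measuring growth inhibition of the human VM-CUB-1 cell line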
Description: SANGER: Inhibition of human VM-CUB-1 cell growth in a cell viability assay.

[18] = system: UMUC3; assay type: functional, cell-based;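 further: growth inhibition of human UM-UC-3 cells, read out with a cell viability assay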
Description: SANGER: Inhibition of human UM-UC-3 cell growth in a cell viability assay.

[19] = system: D-392MG; assay type: functional, cell-based
[20] = system: KYSE-150 cell line; assay type: functional, cell-based;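 further: growth inhibition of human KYSE-150 cells, read out with a cell viability assay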
Description: SANGER: Inhibition of human KYSE-150 cell growth in a cell viability assay.

[21] = system: LCLC-97TM1; assay type: functional, cell-based;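 further: cell viability assay measuring growth inhibition of human LCLC-97TM1 cells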
Description: SANGER: Inhibition of human LCLC-97TM1 cell growth in a cell viability assay.

[22] = system: LN-405; assay type: functional, cell-based
Description: SANGER: Inhibition of human LN-405 cell growth in a cell viability assay.

[23] = system: HCC1806; assay type: functional, cell-based;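 further: growth inhibition of the cancer cell line, determined with a cell viability assay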
Description: SANGER: Inhibition of human HCC1806 cell growth in a cell viability assay.

[24] = system: SCC-25; assay type: functional, cell-based;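 further: growth inhibition of SCC-25 cells, measured with a cell viability assay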
Description: SANGER: Inhibition of human SCC-25 cell growth in a cell viability assay.

[25] = system: NCI-H520; assay type: functional, cell-based;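 further: growth inhibition of NCI-H520 cells, measured by a cell viability assay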
Description: SANGER: Inhibition of human NCI-H520 cell growth in a cell viability assay.

[26] = system: FaDu; assay type: functional, cell-based;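 further: cell viability readout of growth inhibition in FaDu cells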
Description: SANGER: Inhibition of human FADU cell growth in a cell viability assay.

[27] = system: COR-L105; assay type: functional, cell-based;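 further: cell growth inhibition determined with a viability assay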
Description: SANGER: Inhibition of human COR-L105 cell growth in a cell viability assay.

[28] = system: A2058; assay type: functional, cell-based;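 further: reduction of A2058 cell growth, read out with a viability assay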
Description: SANGER: Inhibition of human A2058 cell growth in a cell viability assay.

[29] = system: HPAF-II; assay type: functional, cell-based;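 further: growth inhibition of HPAF-II cells, read out with a cell viability assay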
Description: SANGER: Inhibition of human HPAF-II cell growth in a cell viability assay.

[30] = system: FTC-133; assay type: functional, cell-based
[31] = system: ACHN; assay type: functional, cell-based;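 further: cell viability read-out used to gauge how strongly growth of human ACHN cells is suppressed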
Description: SANGER: Inhibition of human ACHN cell growth in a cell viability assay.

[32] = system: CAL-72; assay type: functional, cell-based;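 further: cell viability assay measuring inhibition of proliferation in the CAL-72 cell line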
Description: SANGER: Inhibition of human CAL-72 cell growth in a cell viability assay.

[33] = system: LoVo; assay type: functional, cell-based;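 further: growth inhibition of human LoVo cells, read out with a cell viability assay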
Description: SANGER: Inhibition of human LoVo cell growth in a cell viability assay.

[34] = system: GP5d; assay type: functional, cell-based;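 further: growth inhibition of human GP5d cells, read out with a cell viability assay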
Description: SANGER: Inhibition of human GP5d cell growth in a cell viability assay.

[35] = system: SW1990; assay type: functional, cell-based;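 further: cell growth inhibition determined with a viability assay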
Description: SANGER: Inhibition of human SW1990 cell growth in a cell viability assay.

[36] = system: MKN-28; assay type: functional, cell-based;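 further: cell viability assay read-out, IC50 reflects suppression of growth of human MKN-28 cells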
Description: SANGER: Inhibition of human MKN28 cell growth in a cell viability assay.

[37] = system: COLO-678; assay type: functional, cell-based
Description: SANGER: Inhibition of human COLO-678 cell growth in a cell viability assay.

[38] = system: Capan-2; assay type: functional, cell-based;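 further: Capan-2 cell growth inhibition, read out with a viability assay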
Description: SANGER: Inhibition of human Capan-2 cell growth in a cell viability assay.

[39] = system: NCI-H727; assay type: functional, cell-based;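 further: growth inhibition of human NCI-H727 cells, read out with a cell viability assay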
Description: SANGER: Inhibition of human NCI-H727 cell growth in a cell viability assay.

[40] = system: H4; assay type: functional, cell-based
Description: SANGER: Inhibition of human H4 cell growth in a cell viability assay.

[41] = system: J82; assay type: functional, cell-based;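 further: growth inhibition of J82 cells, read out with a cell viability assay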
Description: SANGER: Inhibition of human J82 cell growth in a cell viability assay.

[42] = system: SK-N-AS; assay type: functional, cell-based;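 further: growth inhibition of human SK-N-AS cells, measured with a cell viability assay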
Description: SANGER: Inhibition of human SK-N-AS cell growth in a cell viability assay.

[43] = system: NCI-H1563; assay type: functional, cell-based;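 further: growth inhibition of human NCI-H1563 cells, read out with a cell viability assay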
Description: SANGER: Inhibition of human NCI-H1563 cell growth in a cell viability assay.

[44] = system: TYK-nu; assay type: functional, cell-based;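 further: growth inhibition of human TYK-nu cells, read out by a cell viability assay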
Description: SANGER: Inhibition of human TYK-nu cell growth in a cell viability assay.

SMILES: O=C1NC(=O)c2c1c(-c1ccccc1Cl)cc1[nH]c3ccc(O)cc3c21
- IC50 [1]: > 2000 nM
- IC50 [2]: > 2000 nM
- IC50 [3]: 1070 nM
- IC50 [4]: > 2000 nM
- IC50 [5]: > 2000 nM
- IC50 [6]: > 2000 nM
- IC50 [7]: > 2000 nM
- IC50 [8]: > 2000 nM
- IC50 [9]: > 2000 nM
- IC50 [10]: > 2000 nM
- IC50 [11]: > 2000 nM
- IC50 [12]: > 2000 nM
- IC50 [13]: 161 nM
- IC50 [14]: > 2000 nM
- IC50 [15]: > 2000 nM
- IC50 [16]: 1020 nM
- IC50 [17]: > 2000 nM
- IC50 [18]: > 2000 nM
- IC50 [19]: > 2000 nM
- IC50 [20]: > 2000 nM
- IC50 [21]: > 2000 nM
- IC50 [22]: > 2000 nM
- IC50 [23]: > 2000 nM
- IC50 [24]: > 2000 nM
- IC50 [25]: > 2000 nM
- IC50 [26]: > 2000 nM
- IC50 [27]: > 2000 nM
- IC50 [28]: > 2000 nM
- IC50 [29]: > 2000 nM
- IC50 [30]: > 2000 nM
- IC50 [31]: 542 nM
- IC50 [32]: 1820 nM
- IC50 [33]: > 2000 nM
- IC50 [34]: > 2000 nM
- IC50 [35]: 1180 nM
- IC50 [36]: > 2000 nM
- IC50 [37]: > 2000 nM
- IC50 [38]: > 2000 nM
- IC50 [39]: > 2000 nM
- IC50 [40]: 953 nM
- IC50 [41]: > 2000 nM
- IC50 [42]: 1810 nM
- IC50 [43]: > 2000 nM

SMILES: O=C(NCCCNc1nc(Nc2cccc(NC(=O)N3CCCC3)c2)ncc1I)c1cccs1 [BX-795]
- IC50 [1]: > 5000 nM
- IC50 [2]: > 5000 nM
- IC50 [3]: 3140 nM
- IC50 [4]: 4120 nM
- IC50 [5]: > 5000 nM
- IC50 [6]: > 5000 nM
- IC50 [7]: > 5000 nM
- IC50 [8]: > 5000 nM
- IC50 [9]: > 5000 nM
- IC50 [10]: > 5000 nM
- IC50 [11]: > 5000 nM
- IC50 [12]: > 5000 nM
- IC50 [13]: > 5000 nM
- IC50 [44]: 2930 nM
- IC50 [14]: 4960 nM
- IC50 [15]: > 5000 nM
- IC50 [16]: > 5000 nM
- IC50 [17]: 2040 nM
- IC50 [18]: > 5000 nM
- IC50 [19]: > 5000 nM
- IC50 [20]: 2730 nM
- IC50 [21]: > 5000 nM
- IC50 [22]: > 5000 nM
- IC50 [23]: > 5000 nM
- IC50 [24]: > 5000 nM
- IC50 [25]: > 5000 nM
- IC50 [26]: > 5000 nM
- IC50 [27]: > 5000 nM
- IC50 [28]: 2980 nM
- IC50 [29]: > 5000 nM
- IC50 [30]: 3020 nM
- IC50 [31]: > 5000 nM
- IC50 [32]: 4220 nM
- IC50 [33]: > 5000 nM
- IC50 [34]: > 5000 nM
- IC50 [35]: > 5000 nM
- IC50 [36]: > 5000 nM
- IC50 [37]: > 5000 nM
- IC50 [38]: > 5000 nM
- IC50 [39]: > 5000 nM
- IC50 [40]: 1100 nM
- IC50 [41]: > 5000 nM
- IC50 [42]: > 5000 nM
- IC50 [43]: > 5000 nM

SMILES: NC1(c2ccc(-c3nc4ccn5c(=O)[nH]nc5c4cc3-c3ccccc3)cc2)CCC1 [MK-2206]
- IC50 [1]: 1710 nM
- IC50 [2]: > 4000 nM
- IC50 [3]: > 4000 nM
- IC50 [4]: > 4000 nM
- IC50 [5]: 598 nM
- IC50 [6]: > 4000 nM
- IC50 [7]: > 4000 nM
- IC50 [8]: > 4000 nM
- IC50 [9]: > 4000 nM
- IC50 [10]: > 4000 nM
- IC50 [11]: > 4000 nM
- IC50 [12]: > 4000 nM
- IC50 [13]: 647 nM
- IC50 [44]: > 4000 nM
- IC50 [14]: > 4000 nM
- IC50 [15]: > 4000 nM
- IC50 [16]: > 4000 nM
- IC50 [17]: 2390 nM
- IC50 [19]: > 4000 nM
- IC50 [20]: > 4000 nM
- IC50 [21]: > 4000 nM
- IC50 [22]: > 4000 nM
- IC50 [23]: > 4000 nM
- IC50 [24]: > 4000 nM
- IC50 [25]: 986 nM
- IC50 [26]: > 4000 nM
- IC50 [27]: 1800 nM
- IC50 [29]: > 4000 nM
- IC50 [30]: > 4000 nM
- IC50 [32]: > 4000 nM
- IC50 [33]: 1330 nM
- IC50 [34]: > 4000 nM
- IC50 [35]: > 4000 nM
- IC50 [37]: > 4000 nM
- IC50 [38]: > 4000 nM
- IC50 [39]: > 4000 nM
- IC50 [40]: 3460 nM
- IC50 [42]: > 4000 nM
- IC50 [43]: 482 nM
